The target in assay [1] is Tyrosine-protein kinase JAK2 (Homo sapiens, UniProt O60674). In words: Selectivity interaction (Kinase panel (Z-LYTE Assay)) EUB0001632a JAK2. Conditions: at 10 µM.
The target in assay [2] is T1, Testis-specific serine/threonine-protein kinase 1 (Homo sapiens) (UniProt Q9BXA7).
T1 sequence (whole entry): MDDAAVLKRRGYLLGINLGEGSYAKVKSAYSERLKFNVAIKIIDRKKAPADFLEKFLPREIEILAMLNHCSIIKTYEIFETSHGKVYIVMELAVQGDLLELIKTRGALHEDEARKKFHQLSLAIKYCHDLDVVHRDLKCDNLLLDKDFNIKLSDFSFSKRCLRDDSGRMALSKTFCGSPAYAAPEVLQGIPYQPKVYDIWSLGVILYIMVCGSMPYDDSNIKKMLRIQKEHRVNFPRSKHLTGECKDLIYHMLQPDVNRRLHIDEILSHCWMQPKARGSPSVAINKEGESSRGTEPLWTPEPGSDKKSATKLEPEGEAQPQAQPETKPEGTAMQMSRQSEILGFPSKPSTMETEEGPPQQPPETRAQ
Conditions: at 10 µM.

Assay [3] deals with TRAF2 and NCK-interacting protein kinase (Homo sapiens) (UniProt Q9UKE5). Nature of the assay: Selectivity interaction (KinomeScan (DiscoverX)) EUB0000666a TNIK. Conditions: at 10 µM.
In assay [4] the target is T2, Testis-specific serine/threonine-protein kinase 3 (Homo sapiens) (UniProt Q96PN8).
T2 sequence (whole entry): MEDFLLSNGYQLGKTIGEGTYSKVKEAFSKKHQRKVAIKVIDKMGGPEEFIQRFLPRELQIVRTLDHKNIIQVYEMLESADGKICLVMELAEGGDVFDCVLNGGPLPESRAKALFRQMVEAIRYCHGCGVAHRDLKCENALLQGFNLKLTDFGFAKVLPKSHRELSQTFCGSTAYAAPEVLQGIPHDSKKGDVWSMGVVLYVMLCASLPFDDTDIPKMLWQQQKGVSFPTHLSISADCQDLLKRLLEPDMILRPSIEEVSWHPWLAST
In words: Selectivity interaction (KinomeScan (DiscoverX)) EUB0001079a TSSK3. Particulars: at 1 µM.

For assay [5], the target named is T3, Serine/threonine-protein kinase ULK3 (Homo sapiens) (UniProt Q6PHR2).
T3 sequence (whole entry): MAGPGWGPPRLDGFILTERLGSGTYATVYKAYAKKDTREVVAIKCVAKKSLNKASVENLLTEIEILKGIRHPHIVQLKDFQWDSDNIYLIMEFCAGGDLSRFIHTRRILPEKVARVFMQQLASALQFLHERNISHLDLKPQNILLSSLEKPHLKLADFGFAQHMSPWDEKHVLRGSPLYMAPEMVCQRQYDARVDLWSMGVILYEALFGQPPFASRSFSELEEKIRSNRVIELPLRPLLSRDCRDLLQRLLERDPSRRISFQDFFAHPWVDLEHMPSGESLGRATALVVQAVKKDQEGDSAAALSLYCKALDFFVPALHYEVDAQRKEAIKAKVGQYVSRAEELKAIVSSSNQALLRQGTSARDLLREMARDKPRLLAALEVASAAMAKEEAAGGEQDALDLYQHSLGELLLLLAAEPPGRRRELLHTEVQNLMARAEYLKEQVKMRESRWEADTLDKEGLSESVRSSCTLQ
In words: Selectivity interaction (KinomeScan (DiscoverX)) EUB0001619a ULK3. Particulars: at 1 µM.

Assay [6] has as its target Ribosomal protein S6 kinase alpha-2 (Homo sapiens) (UniProt Q15349). In words: Selectivity interaction (ActivX KiNativ screen (kinase selectivity in THP-1 cell lysates)) EUB0000639a RPS6KA2. Particulars: lysate, at 0.01 µM. It is filed as subcellular.
In assay [7] the target is T4, Homeodomain-interacting protein kinase 4 (Homo sapiens) (UniProt Q8NE63).
T4 sequence (whole entry): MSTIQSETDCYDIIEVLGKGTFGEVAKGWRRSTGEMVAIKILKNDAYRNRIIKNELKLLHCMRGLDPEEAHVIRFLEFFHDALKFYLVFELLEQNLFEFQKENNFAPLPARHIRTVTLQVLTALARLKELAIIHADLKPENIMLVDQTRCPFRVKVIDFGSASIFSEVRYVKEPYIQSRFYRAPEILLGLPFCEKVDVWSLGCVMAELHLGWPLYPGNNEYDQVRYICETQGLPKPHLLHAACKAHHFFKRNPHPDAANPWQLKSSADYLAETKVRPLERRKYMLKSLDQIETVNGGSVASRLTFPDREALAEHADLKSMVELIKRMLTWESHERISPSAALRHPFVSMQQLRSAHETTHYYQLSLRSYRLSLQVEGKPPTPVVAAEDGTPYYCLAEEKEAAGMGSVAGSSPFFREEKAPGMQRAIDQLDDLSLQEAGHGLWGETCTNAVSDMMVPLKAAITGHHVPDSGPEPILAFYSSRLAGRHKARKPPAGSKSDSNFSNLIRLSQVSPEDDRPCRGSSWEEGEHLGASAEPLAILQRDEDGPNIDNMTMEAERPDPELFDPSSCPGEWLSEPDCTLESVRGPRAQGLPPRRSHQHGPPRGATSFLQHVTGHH
In words: Selectivity interaction (KinomeScan (DiscoverX)) EUB0000045b HIPK4.

In assay [8] the target is Serine/threonine-protein kinase SBK1 (Homo sapiens) (UniProt Q52WX2). Nature of the assay: Selectivity interaction (KinomeScan (DiscoverX)) EUB0000618a SBK1. Particulars: at 10 µM.
Assay [9] concerns the target T5, Inhibitor of nuclear factor kappa-B kinase subunit epsilon (Homo sapiens) (UniProt Q14164).
T5 sequence (whole entry): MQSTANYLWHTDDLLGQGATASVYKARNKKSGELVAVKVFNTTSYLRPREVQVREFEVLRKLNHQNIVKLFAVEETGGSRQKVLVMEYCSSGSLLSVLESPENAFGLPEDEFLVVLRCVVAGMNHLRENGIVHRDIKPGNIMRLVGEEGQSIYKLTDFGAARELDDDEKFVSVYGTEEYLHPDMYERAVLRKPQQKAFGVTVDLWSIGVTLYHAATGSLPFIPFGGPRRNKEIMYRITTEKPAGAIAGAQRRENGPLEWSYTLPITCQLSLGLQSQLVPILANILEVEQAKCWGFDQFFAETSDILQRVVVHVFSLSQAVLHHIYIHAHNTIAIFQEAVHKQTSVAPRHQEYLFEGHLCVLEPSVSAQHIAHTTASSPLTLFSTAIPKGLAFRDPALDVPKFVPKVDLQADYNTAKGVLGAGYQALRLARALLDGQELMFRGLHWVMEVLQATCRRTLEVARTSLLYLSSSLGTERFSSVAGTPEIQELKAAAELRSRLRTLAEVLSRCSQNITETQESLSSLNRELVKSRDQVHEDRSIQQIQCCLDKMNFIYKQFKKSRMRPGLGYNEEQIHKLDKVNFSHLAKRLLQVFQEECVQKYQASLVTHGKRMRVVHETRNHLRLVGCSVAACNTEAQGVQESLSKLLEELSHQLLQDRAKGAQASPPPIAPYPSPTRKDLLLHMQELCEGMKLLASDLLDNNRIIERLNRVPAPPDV
Nature of the assay: Selectivity interaction (KinomeScan (DiscoverX)) EUB0000618a IKBKE. Conditions: at 10 µM.

For another assay, the target named is Ephrin type-A receptor 4 (Homo sapiens, UniProt P54764). Nature of the assay: Selectivity interaction (Upstate Kinase Profiler service (Millipore)) EUB0000056c EPHA4. Particulars: at 1 µM.
Chain of Ephrin type-A receptor 4 (P54764 whole entry): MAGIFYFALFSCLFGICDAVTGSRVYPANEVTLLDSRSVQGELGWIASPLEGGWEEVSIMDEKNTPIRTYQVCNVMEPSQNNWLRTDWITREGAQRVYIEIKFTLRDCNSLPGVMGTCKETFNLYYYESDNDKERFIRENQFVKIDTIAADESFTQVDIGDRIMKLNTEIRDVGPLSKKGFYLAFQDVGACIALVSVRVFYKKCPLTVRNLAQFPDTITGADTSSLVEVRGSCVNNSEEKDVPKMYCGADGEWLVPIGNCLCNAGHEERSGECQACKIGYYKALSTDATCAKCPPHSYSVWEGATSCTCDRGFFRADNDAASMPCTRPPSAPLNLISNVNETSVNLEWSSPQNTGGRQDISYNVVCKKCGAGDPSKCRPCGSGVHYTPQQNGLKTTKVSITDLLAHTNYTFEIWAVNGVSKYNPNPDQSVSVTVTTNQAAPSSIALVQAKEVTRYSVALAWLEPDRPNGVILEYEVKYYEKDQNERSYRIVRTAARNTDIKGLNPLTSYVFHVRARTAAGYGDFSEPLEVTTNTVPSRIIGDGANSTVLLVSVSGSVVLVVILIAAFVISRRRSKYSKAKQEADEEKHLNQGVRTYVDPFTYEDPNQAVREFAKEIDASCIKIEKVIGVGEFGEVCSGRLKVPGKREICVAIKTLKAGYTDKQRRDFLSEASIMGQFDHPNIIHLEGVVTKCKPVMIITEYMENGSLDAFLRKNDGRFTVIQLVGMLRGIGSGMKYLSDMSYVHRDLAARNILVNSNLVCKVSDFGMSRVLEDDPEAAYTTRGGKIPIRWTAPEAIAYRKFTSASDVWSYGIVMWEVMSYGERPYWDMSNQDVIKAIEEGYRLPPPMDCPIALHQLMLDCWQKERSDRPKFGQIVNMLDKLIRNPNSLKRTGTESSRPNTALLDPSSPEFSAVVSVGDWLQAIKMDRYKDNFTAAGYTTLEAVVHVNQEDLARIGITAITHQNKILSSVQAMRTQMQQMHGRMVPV

Chain of Serine/threonine-protein kinase SBK1 (Homo sapiens) (Q52WX2 whole entry): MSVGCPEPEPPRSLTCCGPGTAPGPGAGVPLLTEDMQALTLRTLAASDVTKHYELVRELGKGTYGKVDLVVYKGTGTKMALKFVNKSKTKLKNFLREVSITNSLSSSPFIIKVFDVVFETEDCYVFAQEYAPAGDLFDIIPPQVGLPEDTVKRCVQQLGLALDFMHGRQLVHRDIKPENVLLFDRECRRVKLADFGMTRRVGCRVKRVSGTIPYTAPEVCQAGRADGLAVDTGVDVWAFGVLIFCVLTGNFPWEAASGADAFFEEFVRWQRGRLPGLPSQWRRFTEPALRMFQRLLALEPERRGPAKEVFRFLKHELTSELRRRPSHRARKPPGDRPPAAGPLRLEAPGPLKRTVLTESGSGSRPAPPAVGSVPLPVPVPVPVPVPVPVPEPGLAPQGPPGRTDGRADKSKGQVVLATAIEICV
Chain of Tyrosine-protein kinase JAK2 (O60674 whole entry): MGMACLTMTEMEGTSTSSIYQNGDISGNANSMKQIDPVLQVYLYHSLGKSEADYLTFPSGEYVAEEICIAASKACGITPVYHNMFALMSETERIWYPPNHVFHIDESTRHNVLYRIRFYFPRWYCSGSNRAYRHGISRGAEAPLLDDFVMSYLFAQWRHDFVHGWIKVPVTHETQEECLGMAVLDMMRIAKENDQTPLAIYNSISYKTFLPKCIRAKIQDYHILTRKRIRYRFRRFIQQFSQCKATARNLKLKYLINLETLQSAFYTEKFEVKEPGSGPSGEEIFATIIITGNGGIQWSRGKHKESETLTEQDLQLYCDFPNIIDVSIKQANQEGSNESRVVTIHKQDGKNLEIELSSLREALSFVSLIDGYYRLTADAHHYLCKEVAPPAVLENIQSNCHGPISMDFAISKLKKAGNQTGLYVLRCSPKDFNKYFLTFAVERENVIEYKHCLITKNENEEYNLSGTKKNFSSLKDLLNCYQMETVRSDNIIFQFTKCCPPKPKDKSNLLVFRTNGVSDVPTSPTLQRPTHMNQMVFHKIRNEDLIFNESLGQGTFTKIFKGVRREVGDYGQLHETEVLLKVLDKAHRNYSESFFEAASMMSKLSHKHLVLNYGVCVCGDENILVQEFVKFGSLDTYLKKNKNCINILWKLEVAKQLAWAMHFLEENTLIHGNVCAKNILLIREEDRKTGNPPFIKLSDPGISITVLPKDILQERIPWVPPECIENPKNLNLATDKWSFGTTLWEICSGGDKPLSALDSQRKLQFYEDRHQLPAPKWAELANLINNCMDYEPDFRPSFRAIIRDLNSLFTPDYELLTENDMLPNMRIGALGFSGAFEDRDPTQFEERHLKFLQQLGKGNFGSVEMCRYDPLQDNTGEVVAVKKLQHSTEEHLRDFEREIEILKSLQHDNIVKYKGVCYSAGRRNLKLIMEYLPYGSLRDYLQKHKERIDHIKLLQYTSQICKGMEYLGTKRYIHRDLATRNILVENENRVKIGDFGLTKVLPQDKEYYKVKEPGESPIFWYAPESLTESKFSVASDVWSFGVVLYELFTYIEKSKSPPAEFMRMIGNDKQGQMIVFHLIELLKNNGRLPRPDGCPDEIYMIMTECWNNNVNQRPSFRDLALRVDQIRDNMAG
Chain of TRAF2 and NCK-interacting protein kinase (Homo sapiens) (Q9UKE5 whole entry, looked up): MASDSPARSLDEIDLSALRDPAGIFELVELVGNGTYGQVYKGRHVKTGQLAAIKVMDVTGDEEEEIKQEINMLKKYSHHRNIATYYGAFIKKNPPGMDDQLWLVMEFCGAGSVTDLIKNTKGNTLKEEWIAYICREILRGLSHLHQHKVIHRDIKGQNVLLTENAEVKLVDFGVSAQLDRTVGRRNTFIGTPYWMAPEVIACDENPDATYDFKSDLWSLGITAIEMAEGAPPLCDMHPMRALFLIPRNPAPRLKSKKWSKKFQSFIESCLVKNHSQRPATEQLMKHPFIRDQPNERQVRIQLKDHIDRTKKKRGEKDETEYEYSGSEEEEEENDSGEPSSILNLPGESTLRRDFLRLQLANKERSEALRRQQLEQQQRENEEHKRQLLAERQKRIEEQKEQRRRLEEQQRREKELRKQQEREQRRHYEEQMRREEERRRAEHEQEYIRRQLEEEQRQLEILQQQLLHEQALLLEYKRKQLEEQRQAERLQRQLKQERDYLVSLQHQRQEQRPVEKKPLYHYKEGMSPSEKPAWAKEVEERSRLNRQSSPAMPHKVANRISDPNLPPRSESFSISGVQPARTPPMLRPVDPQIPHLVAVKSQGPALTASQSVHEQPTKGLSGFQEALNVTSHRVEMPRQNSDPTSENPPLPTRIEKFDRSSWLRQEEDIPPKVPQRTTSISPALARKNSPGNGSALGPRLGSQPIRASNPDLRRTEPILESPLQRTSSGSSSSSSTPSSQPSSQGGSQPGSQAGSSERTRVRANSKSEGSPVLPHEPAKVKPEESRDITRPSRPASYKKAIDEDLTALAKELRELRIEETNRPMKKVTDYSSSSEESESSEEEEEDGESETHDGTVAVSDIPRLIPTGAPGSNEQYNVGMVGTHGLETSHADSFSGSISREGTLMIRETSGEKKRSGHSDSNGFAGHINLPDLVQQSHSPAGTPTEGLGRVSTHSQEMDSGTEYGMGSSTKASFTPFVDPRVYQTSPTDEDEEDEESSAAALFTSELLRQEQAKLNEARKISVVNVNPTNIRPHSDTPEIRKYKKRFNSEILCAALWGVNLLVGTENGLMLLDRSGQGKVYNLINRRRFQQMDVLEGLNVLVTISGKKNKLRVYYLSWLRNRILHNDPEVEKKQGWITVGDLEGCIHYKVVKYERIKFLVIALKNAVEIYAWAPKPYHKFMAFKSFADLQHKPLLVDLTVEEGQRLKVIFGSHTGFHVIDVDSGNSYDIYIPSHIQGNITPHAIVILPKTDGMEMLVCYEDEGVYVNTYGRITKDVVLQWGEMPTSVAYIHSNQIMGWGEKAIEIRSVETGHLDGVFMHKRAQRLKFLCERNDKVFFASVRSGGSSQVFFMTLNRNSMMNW
Chain of Ribosomal protein S6 kinase alpha-2 (Homo sapiens) (Q15349 whole entry): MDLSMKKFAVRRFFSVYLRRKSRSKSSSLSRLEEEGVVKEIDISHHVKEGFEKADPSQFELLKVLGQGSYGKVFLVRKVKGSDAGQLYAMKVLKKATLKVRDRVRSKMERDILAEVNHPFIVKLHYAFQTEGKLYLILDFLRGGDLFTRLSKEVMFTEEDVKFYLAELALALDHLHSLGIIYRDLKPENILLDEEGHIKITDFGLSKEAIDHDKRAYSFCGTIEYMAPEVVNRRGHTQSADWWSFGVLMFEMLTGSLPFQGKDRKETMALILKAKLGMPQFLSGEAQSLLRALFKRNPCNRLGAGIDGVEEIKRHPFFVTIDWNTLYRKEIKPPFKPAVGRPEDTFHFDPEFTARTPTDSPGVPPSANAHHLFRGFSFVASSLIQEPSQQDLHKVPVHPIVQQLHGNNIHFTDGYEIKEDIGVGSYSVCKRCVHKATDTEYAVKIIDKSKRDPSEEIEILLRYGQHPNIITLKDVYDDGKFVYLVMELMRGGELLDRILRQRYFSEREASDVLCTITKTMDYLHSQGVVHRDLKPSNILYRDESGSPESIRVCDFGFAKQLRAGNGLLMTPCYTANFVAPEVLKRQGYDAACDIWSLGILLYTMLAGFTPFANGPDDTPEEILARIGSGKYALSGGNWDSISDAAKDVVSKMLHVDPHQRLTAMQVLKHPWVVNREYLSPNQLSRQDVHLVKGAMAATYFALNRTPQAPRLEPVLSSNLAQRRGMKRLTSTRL

As to `Cn1cc(-n2cnc3c(NCc4nc5cc(Cl)c(Cl)cc5[nH]4)nc(N4CCOCC4)nc32)cn1`, in [1], the % of control was found to be 3.68%.

The molecule `Cc1cc([C@@H](C)Nc2ccccc2C(=O)O)c2nc(N3CCOCC3)cc(=O)n2c1` [AZD-6482] had a % of control in [2] of 100%.

In the case of `O=C(NOC[C@H](O)CO)c1ccc(F)c(F)c1Nc1ccc(I)cc1F`, in [3], the % of control came to 100%.

As to `Nc1cnc(N2CCc3cc(S(=O)(=O)Nc4c(F)cc(Cl)cc4F)cc(N4CCCC4=O)c32)nc1` [TP-020n], the % of control in assay [4] came to 100%.

As to `N#Cc1cccc(-c2c[nH]c3ncnc(N4CCOCC4)c23)c1`, the % of control in [5] came out at 25%.

As for `CC[C@@H]1[C@H](F)C(=O)N[C@@H]1COc1nccc2cc(C(N)=O)c(OC)cc12` [ZIMLOVISERTIB], the % of inhibition in assay [6] is -10.4%.

Regarding `C=CC(=O)Nc1cc(-n2c(=O)ccc3cnc4ccc(-c5ccc(NS(C)(=O)=O)cc5)cc4c32)ccc1C`, the % of control in assay [7] (at 1 µM) is 100%; in assay [7] (at 10 µM) it was 71%.

Regarding `O[C@H]1CC[C@H](Nc2ncc3nc(Nc4c(F)cc(F)cc4F)n([C@H]4CCOC4)c3n2)CC1`, the values for the % of control in [8] and in assay [9] were 73% and 85%, respectively.

Take `Cc1ccc(-c2ccc3c(ccc4sc5c(c43)NC[C@@H](C)NC5=O)n2)cn1`: on Ephrin type-A receptor 4, the % of inhibition came out at 7%.

(Values after ChEMBL document CHEMBL5465560, “Selectivity Literature for EUbOPEN Chemogenomic Library” (2024).)
